In brackets after ≈: the same amount, converted by molar mass.
Assays:
U-937 = assay: Cytotoxicity against human U937 cells after 72 hrs by MTT assay; assay type: functional; details: U-937, 72 h, read-out: LC50 (the source's name)
Plasmodium falciparum = assay: Antimalarial activity against chloroquine-sensitive Plasmodium falciparum 3D7 incubated for 48 hrs by malstat reagent based LDH release assay; assay type: functional, organism-based; details: 3D7, 48 h
Leishmania panamensis = assay: Antileishmanial activity against EpiR/GFP fused Leishmania panamensis MHOM/CO/87/UA140 intracellular amastigotes infected in human […] cells after 72 hrs by flow cytometric method; assay type: functional, organism-based; details: MHOM/CO/87/UA140, 72 h
Trypanosoma cruzi = assay: Antitrypanosomal activity against Trypanosoma cruzi Tulahuen amastigote forms infected in human U937 cells after 72 hrs by beta-galactosidase reporter gene assay; assay type: functional, organism-based; details: U-937, 72 h

Row | Structure (SMILES) | CC50 (U-937) | EC50 (Plasmodium falciparum) | EC50 (Leishmania panamensis) | EC50 (Trypanosoma cruzi)
1 | C[C@@H]1[C@H](O)[C@@H](C)/C=C/C=C/C=C/C=C/C=C/C=C/C=C/[C@H](O[C@@H]2O[C@H](C)[C@@H](O)[C@H](N)[C@@H]2O)C[C@@H]2O[C@](O)(C[C@@H](O)C[C@@H](O)[C@H](O)CC[C@@H](O)C[C@@H](O)CC(=O)O[C@H]1C)C[C@H](O)[C@H]2C(=O)O [AMPHOTERICIN B] | 36 µg/mL (≈ 39 µM) |  |  | 
2 | O=C1NCC(c2cc3cc(Br)ccc3[nH]c2=O)Nc2ccccc21 (configuration not stated) | 57 µg/mL (≈ 148 µM) | 13.6 µg/mL (≈ 35.4 µM) | 15.3 µg/mL (≈ 39.7 µM) | 
3 | O=C(Cn1ccnc1[N+](=O)[O-])NCc1ccccc1 [BENZNIDAZOLE] | 180 µg/mL (≈ 692 µM) |  |  | 
4 | O=C1NCC(c2cc3cc(Cl)ccc3[nH]c2=O)Nc2ccccc21 (configuration not stated) | 192 µg/mL (≈ 566 µM) | 43.2 µg/mL (≈ 127 µM) | 19.4 µg/mL (≈ 57.2 µM) | 123 µg/mL (≈ 361 µM)
5 | CCCCOc1nc2ccc(Br)cc2cc1C1CNC(=O)c2ccccc2N1 (configuration not stated) | > 200 µg/mL | 50.8 µg/mL (≈ 115 µM) | 34.2 µg/mL (≈ 77.6 µM) | 

Reference: ChEMBL document CHEMBL4138146, “A Schmidt rearrangement-mediated synthesis of novel tetrahydro-benzo[1,4]diazepin-5-ones as potential anticancer and antiprotozoal agents” (Eur J Med Chem, 2017)
